# Source: PubChem BioAssay AID1996
# Details: buffer; pH 7.4; 200.0 µM
row,SMILES,solubility kinetic
1,CC(C#N)Sc1ccc(S(=O)(=O)N2CCCCC2)cn1 (stereo not drawn),9.4 µg/mL
2,COC(=O)COc1ccc(NC(=O)c2ccco2)cc1,39.1 µg/mL
3,COc1cc(C(=O)OCC(=O)NC2CCCC2)cc(OC)c1OC,> 50.6 µg/mL
4,O=c1cc(CCl)nc2scc(-c3ccccc3)n12,> 41.5 µg/mL
5,COCC(=O)Nc1ccc(Br)c(C)c1,> 38.7 µg/mL
6,COc1ccccc1C(=O)Nc1c[nH]c(=O)[nH]c1=O,3.4 µg/mL
7,O=C(N1CCN(CCO)CC1)N1c2ccccc2CCc2ccccc21,45.9 µg/mL
8,CN1CCN(C(=O)CN(C)S(=O)(=O)c2ccc(F)cc2)CC1,44.7 µg/mL
9,CCCc1ccc(OCCNC(=O)c2ccco2)cc1,> 41 µg/mL
10,O=C(OC1CCOC1=O)c1cc(Cl)ccc1[N+](=O)[O-] (stereo not drawn),42.1 µg/mL
11,S=C(Nc1ccccc1Cl)N1CCN(c2ccccn2)CC1,2.3 µg/mL
12,CCNC(=O)C1CCCN1S(=O)(=O)c1ccc2ccccc2c1 (stereo not drawn),> 49.9 µg/mL
13,Clc1ccc(CNc2ccccn2)cc1,25.8 µg/mL
14,O=C(COc1cccnc1[N+](=O)[O-])NCc1cccs1,> 44 µg/mL
15,COc1ccc(S(=O)(=O)NCc2ccccc2)cc1Br,4.3 µg/mL
16,COc1ccc(N2CCN(C(=O)Cc3ccc(Cl)cc3)CC2)cc1,50.1 µg/mL
17,O=C(/C=C/c1ccco1)NC(=S)N1CCCCC1,27.4 µg/mL
18,Cc1cc(C)nc(NC(=O)CSc2ncccn2)n1,> 41.3 µg/mL
19,Cc1ccccc1CN(C)C(C)C(=O)NCc1ccccc1 (stereo not drawn),37.1 µg/mL
20,COc1ccccc1-n1ccnc1SCC(=O)NCc1ccco1,48.4 µg/mL
21,O=Cc1c[nH]c2ccc(C(=O)c3ccccc3)cc12,4.3 µg/mL
22,COc1ccc(/C=C/C(=O)OCc2cccc([N+](=O)[O-])c2)cc1,< 0.7 µg/mL
23,CN1C(=O)Cc2cc(S(=O)(=O)NCCc3ccccc3)ccc21,39.1 µg/mL
24,Cc1[nH]c2ccccc2c(=O)c1C(=O)/C=C/c1ccccc1,35.8 µg/mL
25,COC(=O)c1sccc1NC(=O)C1CCCCC1C(=O)O (stereo not drawn),42.1 µg/mL

row,SMILES,solubility kinetic
1,O=C(Nc1cccc(F)c1)Nc1ccc2c(c1)OCO2,4.4 µg/mL
2,O=C1NCCN1Cc1ccc(Cl)cc1,26.3 µg/mL
3,COc1ccc(C(=O)NC23CC4CC(CC(C4)C2)C3)cc1,1 µg/mL
4,CC(NC(=O)COC(=O)C1CC1C)c1cccc(Cl)c1 (stereo not drawn),> 44.4 µg/mL
5,CC(=O)Nc1nonc1NC(=O)COc1ccccc1,> 41.4 µg/mL
6,CC1CN(C(=O)COC(=O)[C@@H](NC(=O)c2ccccc2Cl)C(C)C)CC(C)O1 (stereo partly drawn),58.5 µg/mL
7,CC1(CCl)CN1S(=O)(=O)c1ccccc1 (stereo not drawn),30.8 µg/mL
8,CC(=O)Nc1ccc(S(=O)(=O)Nc2nc(C)nc3sc(C)c(C)c23)cc1,> 58.6 µg/mL
9,O=C(O)CC(c1cccc(O)c1)N1Cc2ccccc2C1=O (stereo not drawn),> 44.6 µg/mL
10,CC(C)C1Nc2ccc(C(=O)O)cc2C2C=CCC21 (stereo not drawn),> 38.6 µg/mL
11,O=C1COc2ccc(S(=O)(=O)NCCc3ccccc3)cc2N1,13 µg/mL
12,COc1ccc(NC(=O)C2=C(C)NC(=O)NC2c2ccccc2[N+](=O)[O-])cc1 (stereo not drawn),57.1 µg/mL
13,CC(=O)Nc1ccc(NC(=O)c2c(-c3ccccc3)noc2C)cn1,11.1 µg/mL
14,O=C1CSC(c2cccnc2)N1CCc1ccccn1 (stereo not drawn),> 42.8 µg/mL
15,Cc1cnc(=O)[nH]c1SCc1cccc([N+](=O)[O-])c1,5.6 µg/mL
16,O/N=C\c1ccccc1Oc1ccc(F)cc1,32.3 µg/mL
17,COc1cc(NC(=O)CCN2CCOCC2)cc(OC)c1,> 44.2 µg/mL
18,Cc1ccc(Oc2ncnc(N)c2[N+](=O)[O-])cc1,12.3 µg/mL
19,O=C(NCCCN1CCOCC1)c1ccc(Cl)cc1Cl,> 47.6 µg/mL
20,CC(=O)N1CCC(C(=O)NCCOc2ccc(C)cc2)CC1,> 45.7 µg/mL
21,CCCCCSc1ncccc1C(=O)O,> 33.8 µg/mL
22,Cc1ccnc(NCc2c(O)ccc3ccccc23)c1,9.2 µg/mL
23,CC(OC(=O)c1cc2sccc2n1C)C(=O)NC(C)(C)C (stereo not drawn),> 46.3 µg/mL
24,Cc1nc(NC(=O)c2cc3ccccc3o2)sc1C,3.1 µg/mL
25,Cc1ccc(S(=O)(=O)NCCc2c[nH]c3ccccc23)cc1,37.7 µg/mL

row,SMILES,solubility kinetic
1,COc1ccc(NC(=S)Nc2cccnc2)c(OC)c1,42.5 µg/mL
2,O=C(C1CCN(S(=O)(=O)c2ccc(Cl)cc2)CC1)N1CCCC1,35.9 µg/mL
3,CCOc1ccc2nc(NC(=O)C3CCCO3)sc2c1 (stereo not drawn),> 43.9 µg/mL
4,CCOC(=O)Cc1csc(NC(=O)CN2CCN(CC)CC2)n1,3.8 µg/mL
5,COCCN(CC(=O)Nc1cccc(C)c1C)C(=O)Cc1ccsc1,> 54.1 µg/mL
6,O=C1NC(=Nc2cccnc2)S/C1=C/c1ccc(F)cc1,0.7 µg/mL
7,Cc1ccc2nc(SCC(=O)NC3CC3)[nH]c2c1,> 39.2 µg/mL
8,O=C(CSCc1ccccc1)NCCc1ccc(F)cc1,41.5 µg/mL
9,CS(=O)(=O)N1CCc2nc(-c3ccccc3)sc2C1,10.4 µg/mL
10,N#C/C(=C\c1ccncc1)c1nc2ccccc2[nH]1,24.8 µg/mL
11,COCCCNC(=O)C1CCN(c2ccc(N3CCOCC3)nn2)CC1,> 54.5 µg/mL
12,Cc1cc(C(F)(F)F)c2c(N)c(C(=O)NC3CC3)sc2n1,> 47.3 µg/mL
13,C#CCn1cnc2c(oc3ccccc32)c1=O,> 33.6 µg/mL
14,CS(=O)(=O)N(CC(=O)N1CCCCCC1)c1cccc([N+](=O)[O-])c1,> 53.3 µg/mL
15,CCN1CCN(c2ncnc3sc4c(c23)CCC(C)C4)CC1 (stereo not drawn),26.4 µg/mL
16,CN(C)c1cc[n+](CC(=O)Nc2ccc(OC(F)F)cc2)cc1.[Cl-],> 53.7 µg/mL
17,CC(C)CC(N=Cc1c(O)c2ccccc2oc1=O)C(=O)O (stereo not drawn),> 45.5 µg/mL
18,COC(=O)CCC(=O)c1ccn(S(=O)(=O)c2ccccc2)c1,44.6 µg/mL
19,CC(=O)c1c(C)[nH]c(C(=O)Nc2cc(F)ccc2C)c1C,4.5 µg/mL
20,CC(C)(C)c1ccc(OCc2cnc(Cl)s2)cc1,< 0.6 µg/mL
21,O=C(O)CC1(CC(=O)NCc2ccccn2)CCCCC1,> 43.6 µg/mL
22,Cn1cc(CCC(=O)NC2CC2)c2ccccc21,> 36.3 µg/mL
23,Cc1ccc2cc3c(nc2c1)N(c1ccccc1)CC3,< 0.3 µg/mL
24,COc1ccc2c(c1)C=C(CN1CCN(C(C)C)C(CCO)C1)CO2 (stereo not drawn),34.5 µg/mL
25,CC(C)Sc1nc2ncnc(N)c2[nH]1,> 31.4 µg/mL

row,SMILES,solubility kinetic
1,O=C(O)CSc1ncnc2sc3c(c12)CCCC3,> 42.1 µg/mL
2,Cc1cc(S(=O)(=O)N2CCc3ccccc3C2)ccc1F,< 0.7 µg/mL
3,O=C(/C=C/c1ccc(Cl)c([N+](=O)[O-])c1)c1ccc(O)cc1,3.9 µg/mL
4,COc1ccc2nc(SCC(=O)NCC3CCCO3)c(C#N)cc2c1 (stereo not drawn),5.2 µg/mL
5,CC1CC1C(=O)OCC(=O)Nc1ccc(S(=O)(=O)N2CCOCC2)cc1 (stereo not drawn),> 57.4 µg/mL
6,Cl.N=c1ccn(Cc2c(Cl)cccc2Cl)cc1,> 43.4 µg/mL
7,O=C(NCc1ccc2c(c1)OCO2)Nc1ccc2nsnc2c1,2.5 µg/mL
8,CC(CN1CCCCC1)OC(=O)/C=C/c1ccccc1.Cl (stereo not drawn),> 46.5 µg/mL
9,CCn1c(SCC(=O)NCC2CCCO2)nc2ccccc21 (stereo not drawn),> 47.9 µg/mL
10,O=C(/C=C/NCc1cccnc1)C(F)(F)C(F)(F)F,> 42 µg/mL
11,Cc1cc(NC(=O)CN(C)C)c([N+](=O)[O-])cc1C,4.1 µg/mL
12,N#Cc1ncccc1CCc1cccc(Cl)c1,22.4 µg/mL
13,Cc1nc([N+](=O)[O-])c(N2CCOCC2)n1Cc1ccccc1,44.7 µg/mL
14,Fc1ccccc1-c1nc(NCc2ccccc2)c2ccccc2n1,3.1 µg/mL
15,CSc1ccc(S(=O)(=O)NC2CC3CCC2C3)cc1 (stereo not drawn),29.7 µg/mL
16,O=c1cnnc(Nc2ccccc2F)[nH]1,> 30.9 µg/mL
17,Cc1ccc(NC(=O)Cn2c([N+](=O)[O-])cnc2C)cc1Cl,1.6 µg/mL
18,CC(=O)Nc1ccc(-n2c(C)ccc2-c2ccccc2)cc1,4.4 µg/mL
19,N#Cc1ccc(Cn2cc(C=O)c3ccccc32)cc1,4 µg/mL
20,O=C(CNCc1cccc2ccccc12)Nc1ccccc1[N+](=O)[O-],5.4 µg/mL
21,S=C(Nc1cccc(Cl)c1Cl)N1CCCC1,15.7 µg/mL
22,O=C(NCc1ccccc1)C1CC(=O)N(C2CCCCC2)C1 (stereo not drawn),> 45.1 µg/mL
23,Cn1c(O)c(C=Nc2ccccc2-c2ccccc2)c(=O)n(C)c1=O,< 0.2 µg/mL
24,CC1CCCN(c2cc(N(C)CCO)c([N+](=O)[O-])c3nonc23)C1 (stereo not drawn),> 50.3 µg/mL
25,Nc1nonc1C(=O)N1CCCCC1,28.2 µg/mL

row,SMILES,solubility kinetic
1,O=C(NCCc1ccc(Cl)cc1)Nc1ccc(Cl)cc1,< 0.3 µg/mL
2,CC(=O)N1CCN(c2ccccc2NC(=O)c2cccs2)CC1,> 49.4 µg/mL
3,O=C(Nc1ccc(F)cc1)N1CCCCCC1,> 35.4 µg/mL
4,Cn1nc(-c2ccc(Cl)cc2)cc1NC(=O)CC(C)(C)CC(=O)O,> 52.5 µg/mL
5,NC(=O)CCN1CCCCC1,> 23.4 µg/mL
6,COc1cc(OC)c(NC(=O)Cc2cccs2)cc1Cl,32.1 µg/mL
7,Cc1nc2cc(NC(=O)Nc3cccc([N+](=O)[O-])c3)ccc2n1C,0.6 µg/mL
8,CC(N)C12CC3CC(CC(C3)C1)C2.Cl (stereo not drawn),> 32.4 µg/mL
9,CCOC(=O)c1sc2nc(C)[nH]c(=O)c2c1C,2.7 µg/mL
10,CC(C)N(CCn1cnc2c([nH]c3ccccc32)c1=O)C(C)C,24.5 µg/mL
11,Cc1ccc(S(=O)(=O)N2CCOCC2)cc1NC(=O)c1cc2ccccc2oc1=O,1.1 µg/mL
12,OCCN(Cc1ccccc1)Cc1nc(CC2CC2)no1,> 43.1 µg/mL
13,CC1CCc2onc(C(=O)NCc3ccco3)c2C1 (stereo not drawn),22.6 µg/mL
14,COC(=O)CSc1nc(C)cc(N2CCOCC2)n1,> 42.5 µg/mL
15,CCOCCCNC(=O)/C(C#N)=C/c1ccccc1F,> 41.4 µg/mL
16,CC(=O)c1ccc(-n2c(CCC(=O)O)ccc2-c2ccccc2)cc1,41.5 µg/mL
17,Cc1cc(C)c2oc(C(=O)NCc3ccccc3)cc(=O)c2c1,2.3 µg/mL
18,Cc1ccc(C(O)CCc2ccc(N)cc2)cc1 (stereo not drawn),31.9 µg/mL
19,c1ccc(-c2ccc(CN3CCSCC3)cc2)cc1,1.7 µg/mL
20,CC1(/[N+]([O-])=C/c2cccc(Cl)c2)CCCCC1=O (stereo not drawn),36.2 µg/mL
21,COc1ccc(CCNc2ncnc3c2c(C)c(C)n3CCO)cc1OC,53.8 µg/mL
22,Cc1ccc(CSc2ncnc3onc(C)c23)cc1,< 0.2 µg/mL
23,CC(C)(C)c1ccc(C(=O)N2CCN(C(=O)c3cccs3)CC2)cc1,> 53.5 µg/mL
